System: IL15 signaling pathway
Assay: Phospho-flow cytometry assay of IL15 expression and signaling (pSTAT5, pS6)
Format: cell-based, human
Details: regulated mbIL15 TILs, ACZ 0.1-100, 18 hours
Procedure: Pre-REP TILs were prepared similarly to the methods of Example 1-3 and 9, and unengineered and mbIL15 TIL generated accordingly as described in Examples 1-3 and 9. Engagement of the IL15 signaling pathway results in phosphorylation of signal transducers downstream, including the transcription factor protein STATS and ribosomal protein S6. […] Next, the regulated mbIL15 TILs were regulated for 18 hours in the presence of a range of concentrations of ACZ including 0.1, 1, 2.5, 5, 10, 25, 100 as well as vehicle control. The regulated mbIL15 TILs were then collected for staining and FACS analysis.
Briefly, cells were stained using antibodies for CD3, CD4, CD8, IL15 and a Live/Dead marker. Then cells were fixed in 2% formaldehyde (BD Cytofix) and permeabilized using a methanol-based buffer (BD Phospho Perm III Buffer) before staining with antibodies specific for phosphorylated STATS (Biolegend) and S6 (Cell Signaling Technology). Cells were acquired on the BD Symphony and analyzed using FlowJo software.
In order to compare different strategies for IL15 expression, TILs were utilized that constitutively express mbIL15 and regulated mbIL15 TILs. Cryopreserved unengineered TILs, constitutive mbIL15 TILs, and regulated mbIL15 TILs, from three human donors were thawed and then rested in ACZ-free media for 24 hours. […] Cells were acquired on the BD Fortessa and analyzed using FlowJo software.

For CC(=O)Nc1nnc(S(N)(=O)=O)s1 [ACZ, acetazolamide], the “staining intensity of pSTAT5 and pS6” value was “increased with higher concentrations of ACZ”.

Reference: patent US20240075064A1, “COMPOSITIONS AND METHODS FOR EXPANSION OF T CELLS AND TUMOR INFILTRATING LYMPHOCYTES” (OBSIDIAN THERAPEUTICS, INC., priority 2021, published 2024)
